Experimental data: patent US11360080B2, “AhR-ROR-γt complex as a biomarker and therapeutic target for autoimmune disease and IL-17A-associated disease” (NATIONAL HEALTH RESEARCH INSTITUTES, priority 2018, dated 2022)

Tested on: GLK
Assay: GLK shRNA knockdown in T cells of Lck-GLK Tg mice, flow cytometry of IL-17A-producing T cells
Format: cell-based, mouse
Conditions: anti-CD3 3 h, day 3 post-transfection
Description: (A) Hematoxylin and eosin-stained sections of indicated organs from mice. Arrows, infiltrating immune cells. Bar, 100 μm. (B) Levels of serum autoantibodies from mice were determined by ELISA assays. The levels are presented relative to the value from one of wild-type mice. (C) The serum levels of cytokines in mice were determined by ELISA assays. (D) The serum levels of autoantibodies in Lck-GLK and Lck-GLK/IL-17A KO mice were determined by ELISA assays. The levels are presented relative to the value from one of Lck-GLK mice. (E) IL-17A expression was attenuated by GLK shRNA. Murine primary splenic T cells were transfected with GFP-human GLK shRNA and a control GFP vector. The transfected T cells were stimulated with anti-mouse CD3 antibodies for 3 h and then determined by flow cytometry at day 3 post-transfection. […] WT, wild-type littermate controls; Lck-GLK, T-cell-specific GLK transgenic mice. Lck-GLK/IL-17A KO, Lck-GLK; IL-17A-deficient mice. ANA, anti-nuclear antibody; α-dsDNA, anti-dsDNA antibody; RF, rheumatoid factor. *, P value<0.05; **, P value<0.01 (two-tailed Student's t-test).
Human Jurkat T leukaemia cells (TIB-152) were cultured in RPMI-1640 medium (Invitrogen) containing 10% fetal calf serum plus penicillin (10 units per ml) and streptomycin ([…]). […]

## GLK shRNA: human GLK shRNA (5′-GTGCCACTTAGAATGTTTGAAA-3, SEQ ID NO: 7) subcloned into pSUPER-GFP vector
  IL-17A overproduction in T cells from Lck-GLK Tg mice: abolished
